Experimental findings from publication PMC12257535, “Distinct Interactions of Cannabinol and Its Cytochrome P450-Generated Metabolites with Receptors and Sensory Neurons” (Journal of Medicinal Chemistry, 2025) are described below.

Some results are limits rather than exact numbers.

A short description of data set [1]: In vivo metabolism of CBN in female mice, plasma levels by targeted LC/MS/MS. Also on record: species or system C57BL/6 mice. The note with it: for CBN-11-OH formation relative to CBN-1′-OH / CBN-11-OH formation relative to CBN-quinone: 0.5 h, plasma. As for the experimental part: Initially dissolved in ethanol, CBN was combined with a volume of Tween 80, constituting 6% of the total solution volume for injection. Ethanol was eliminated via vacuum evaporation, and saline was added to prepare a 4 mg/mL solution. CBN (20 mg/kg) or vehicle was administered to C57BL/6 mice intravenously (IV) through the retro-orbital sinus or intraperitoneally (IP) at the lower right quadrant of the abdomen. Animals were euthanized at 30- or 120 min postinjection. Blood samples, collected via cardiac puncture into heparin tubes, underwent cold centrifugation at 4500 rpm for 15 min to isolate plasma. Plasma and whole liver samples were flash-frozen at −80 °C for subsequent analysis. Our decision to use female mice for this experiment was based on the availability of age-matched mice in the colony at the time of the experiment.
Mice were anaesthetized with a 3% inhalant dose of isoflurane until their respiratory rate decreased to 50% of baseline (i.e., 40–60 breaths/min) and the righting reflex was abolished. Mice were subsequently removed from the induction chamber and laid on their side. Using the index finger and thumb of the nondominant hand, the skin above and below the eye was retracted until a slight protrusion from the socket was noted. A 29G1/2 needle was inserted, bevel down, into the medial canthus at an approximate 45-degree angle until slight resistance was noted. Volume was slowly infused at a rate of 15uL/second. The needle was subsequently removed from the eye socket, and ophthalmic ointment was added.
Animals were gently restrained by scruff, and the injection site at the lower right quadrant of the abdomen was identified. The needle was inserted at a 60-degree angle to the body, and the plunger was lightly withdrawn to ensure the needle was not in contact with viscera or organs before dispensing volume.
200 μL plasma samples were collected and used for extraction using 1 mL of Hexane: Ethyl acetate (8:2 v/v) following a similar protocol described above.
Samples were analyzed using the Sciex QTrap 6500+ system (Framingham, MA) with Waters Acquity I- class plus UPLC. Software Analyst 1.7.1 was used for data acquisition.
The LC separation was performed on a Waters Acquity UPLC BEH column (2.1 × 100 mm, 1.7 μm) with mobile phase A (0.1% formic acid in water) and mobile phase B (0.1% formic acid in acetonitrile). The flow rate was 0.5 mL/min unless noted otherwise. The linear gradient was as follows: 0–0.5 min, 70%A; 2 min, 20%A; 4–4.2 min, 0%A; 4.21–5.2 min, 0%A (0.8 mL/min); 5.3–6.9 min, 70%A. The autosampler was set at 10 °C, and the column was kept at 50 °C. The injection volume was 5 μL.
Mass spectra were acquired under positive electrospray ionization (ESI) with the ion spray voltage of 4500 V. The source temperature was 500 °C. The curtain gas, ion source gas 1, and ion source gas 2 were 32, 50, and 70 psi, respectively. Multiple reaction monitoring (MRM) was used for quantitation with the MRM transition of CBN (m/z 311.2 → m/z 269.1), CBN-1′–OH (m/z 327.2 → m/z 253.1), CBN-11-OH (m/z 327.2 → m/z 128.1), CBN-p-quinone (m/z 325.2 → m/z 283.1) and EPEA-d4 as internal standard (m/z 350.3 → m/z 66.1).

The next data set has as its system human liver microsomes. In words: CBN metabolism by human liver microsomes, metabolite formation rate. The following applies: HLM, across different CBN concentrations. The format is in vitro ADME. As for the experimental part: We carried out concentration-dependent metabolism of CBN in the presence of 2 CYPs: 2C9 and 2D6. For the experiment, we used an enzyme concentration of 0.5 μM, reconstituted in the lipid system of POPC: POPS (8:2 v/v), and CPR at 0.6 μM dissolved in 0.1 M potassium phosphate buffer for CYP2C9. The substrate CBN was used in a range of 5–80 μM. The reaction mixture was incubated at 37 °C for 10 min, and then NADPH was added (1 mM), allowing the reaction to proceed for an additional 30 min. We quenched the reactions using a mixture of Hexane: Ethyl Acetate (8:2 v/v) and used the same composition to extract the CBN metabolites. We did a total extraction for three cycles. Following the extractions, the extractions were dried under a continuous stream of nitrogen, and the residual products were finally dissolved in 90% ethanol. We used CYP2D6 in a nanodisc for the metabolism of CBN. […] We carried out the same protocol for the metabolism of CBN using 1 μg of human liver microsome, CPR (0.6 μM) and NADPH (1 mM).
Samples were analyzed with the Sciex QTrap 6500+ system (Framingham, MA) with Waters Acquity I-class plus UPLC. Software Analyst 1.7.1 was used for data acquisition.
The LC separation was performed on a Waters Acquity UPLC BEH column (2.1 × 100 mm, […]) with mobile phase A (0.1% formic acid in water) and mobile phase B (0.1% formic acid in acetonitrile). The flow rate was 0.5 mL/min unless noted otherwise. […]
(§1) Mass spectra were acquired under positive electrospray ionization (ESI) with the ion spray voltage of 4500 V. The source temperature was 500 °C. […] Multiple reaction monitoring (MRM) was used for quantitation, as described in transitions CBN (m/z 311.2 → m/z 205.1), CBN-1′–OH (m/z 327.2 → m/z 253.1), CBN-11-OH (m/z 327.2 → m/z 291.1), CBN-p-quinone (m/z 325.2 → m/z 283.1) and CBC-d9 as internal standard (m/z 324.2→ m/z 202.1).
(§2) All data were analyzed using the software Skyline (daily version 22.2.1.278). […]

Another data set deals with T1, CYP2D6 (Homo sapiens, UniProt P10635).
T1 construct: polyhistidine (inferred from Ni-NTA purification and histidine elution); made in house; host or cells: E. coli (inferred from the pCWori vector and lysozyme/spheroplast preparation)
Nature of the data set: CYP2D6 (nanodisc)-mediated CBN metabolism, kinetics of metabolite formation. The format is in vitro ADME. The following applies: CBN 5–80 μM. How it is done:
We carried out concentration-dependent metabolism of CBN in the presence of 2 CYPs: 2C9 and 2D6. For the experiment, we used an enzyme concentration of 0.5 μM, reconstituted in the lipid system of POPC: POPS (8:2 v/v), and CPR at 0.6 μM dissolved in 0.1 M potassium phosphate buffer for CYP2C9. The substrate CBN was used in a range of 5–80 μM. The reaction mixture was incubated at 37 °C for 10 min, and then NADPH was added (1 mM), allowing the reaction to proceed for an additional 30 min. We quenched the reactions using a mixture of Hexane: Ethyl Acetate (8:2 v/v) and used the same composition to extract the CBN metabolites. We did a total extraction for three cycles. […]
Samples were analyzed with the Sciex QTrap 6500+ system (Framingham, MA) with Waters Acquity I-class plus UPLC. […]
as §1, §2

Another data set concerns the target CB2 receptor (Homo sapiens, UniProt P34972). Nature of the data set: G protein nanoBRET assay, antagonist mode, CB2 receptor. The note with it: 50 μM after pretreatment with 1 μM CP-55940.
The test system of the next data set is NO. In words: NO levels in LPS-stimulated BV2 microglial cells. The format is cell-based. How it is done: (§3) The BV2 microglial cells were subjected to the treatment of LPS both in the absence and presence of CBN and its selected metabolites. The seeding density for this assay was 1 × 10^5 cells/well. The cells were initially treated with the molecules for 4 h before being stimulated with LPS (25 ng/mL). The NO assay was performed 24 h after the treatment with LPS. The NO assay was performed according to the manufacturer’s protocol, and NO levels were quantified using nitrate standard curves. For the assay, 50 μL of cell media was used in a 96-well plate, and the absorbance was recorded at 540 nm. All measurements were performed in n = 5.

The test system of another data set is IL-6. Nature of the data set: IL-6 ELISA in LPS-stimulated BV2 microglial cells. The format is cell-based. The note with it: LPS-stimulated BV2, 5 μM. As for the experimental part: as §3
(§4) ELISA assays of IL-6, IL-10 (Item No. 88–7105), and Arginase 1 were performed using the same supernatant with which we had completed the NO and LDH assays. The culture media was collected, and the IL-6 (Thermo Scientific) and Arginase 1 (abcam) assays were performed using the specific monoclonal antibodies as per the manufacturer’s instructions.

For a further data set, the system named is IL-10. Nature of the data set: IL-10 ELISA in LPS-stimulated BV2 microglial cells. The format is cell-based. The following applies: LPS-stimulated BV2, 1–5 μM. How it is done:
as §3, §4

A further data set concerns Arginase 1. In words: Arginase 1 ELISA in LPS-stimulated BV2 microglial cells. The format is cell-based. As for the experimental part: as §3, §4
The next data set deals with DRG neurons. In words: Calcium responses of cultured DRG sensory neurons. The format is cell-based. The following applies: cultured mouse DRG neurons, 50 μM × 15 s. As for the experimental part:
9 CBN and 11-OH CBN activate DRG neurons with similar response magnitudes but differ in their percentage of neurons activated and time to peak response. Calcium response traces of representative cultured mouse DRG neurons following application of CBN (A) and 11-OH CBN (B) 50 μM × 15 s (arrow). […] Mean value ± SEM (CBN: n = 59; 11-OH CBN: n = 29, two-tailed t test, Prism GraphPad).

Another data set has as its target CB1 receptor (Homo sapiens, UniProt P21554). Nature of the data set: G protein nanoBRET assay, antagonist mode, CB1 receptor. The note with it: 50 μM after pretreatment with 1 μM CP-55940.
The target in another data set is CYP3A4 (Homo sapiens, UniProt P08684, S18F). In words: NADPH oxidation assay with CYP3A4 nanodisc and CPR. The following applies: triplicate.
Substrate in data set [2]: CCCCCC1=CC(=O)C2=C(OC(C)(C)c3ccc(C)cc32)C1=O
Description: (§5) For the experiment, we used an enzyme concentration of 0.5 μM, reconstituted in the lipid system of POPC: POPS (8:2 v/v), and CPR at 0.6 μM dissolved in 0.1 M potassium phosphate buffer for CYP2C9. […] The reaction mixture was incubated at 37 °C for 10 min, and then NADPH was added (1 mM), allowing the reaction to proceed for an additional 30 min. […] We did a total extraction for three cycles. Following the extractions, the extractions were dried under a continuous stream of nitrogen, and the residual products were finally dissolved in 90% ethanol.
(§6) The LC separation was performed on a Waters Acquity UPLC BEH column (2.1 × 100 mm, 1.7 μM) with mobile phase A (0.1% formic acid in water) and mobile phase B (0.1% formic acid in acetonitrile). The flow rate was 0.5 mL/min unless noted otherwise. The linear gradient was as follows: 0–0.5 min, 70%A; 2 min, 20%A; 4–4.2 min, 0%A; 4.21–5.2 min, 0%A (0.8 mL/min); 5.3–6.9 min, 70%A. The autosampler was set at 10 °C, and the column was kept at 50 °C. The injection volume was 5 μL.
(§7) All data were analyzed using the software Skyline (daily version 22.2.1.278). It includes raw data import, peak integration, and a linear regression fit with 1/×2 weighting for the calibration curves.
In words: not read. The following applies: other: CYP2C9, CBN 5–80 μM.

Substrate in data set [3]: CCCC[C@H](O)c1cc(O)c2c(c1)OC(C)(C)c1ccc(C)cc1-2
Description: as §5, §6, §7
Nature of the data set: not read. The following applies: other: CYP2C9, CBN 5–80 μM.

Sequence of CB2 receptor (P34972 whole entry): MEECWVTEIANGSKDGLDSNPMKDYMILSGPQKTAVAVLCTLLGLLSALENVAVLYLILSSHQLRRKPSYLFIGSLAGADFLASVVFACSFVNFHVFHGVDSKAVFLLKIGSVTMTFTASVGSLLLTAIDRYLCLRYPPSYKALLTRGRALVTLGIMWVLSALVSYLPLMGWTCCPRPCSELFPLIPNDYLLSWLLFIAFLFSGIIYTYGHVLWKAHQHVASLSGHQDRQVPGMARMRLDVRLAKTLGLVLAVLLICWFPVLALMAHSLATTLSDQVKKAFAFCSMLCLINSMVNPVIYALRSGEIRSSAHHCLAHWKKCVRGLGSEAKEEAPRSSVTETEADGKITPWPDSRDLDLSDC
T1 sequence (P10635 with tags, fused parts or gaps limits assumed): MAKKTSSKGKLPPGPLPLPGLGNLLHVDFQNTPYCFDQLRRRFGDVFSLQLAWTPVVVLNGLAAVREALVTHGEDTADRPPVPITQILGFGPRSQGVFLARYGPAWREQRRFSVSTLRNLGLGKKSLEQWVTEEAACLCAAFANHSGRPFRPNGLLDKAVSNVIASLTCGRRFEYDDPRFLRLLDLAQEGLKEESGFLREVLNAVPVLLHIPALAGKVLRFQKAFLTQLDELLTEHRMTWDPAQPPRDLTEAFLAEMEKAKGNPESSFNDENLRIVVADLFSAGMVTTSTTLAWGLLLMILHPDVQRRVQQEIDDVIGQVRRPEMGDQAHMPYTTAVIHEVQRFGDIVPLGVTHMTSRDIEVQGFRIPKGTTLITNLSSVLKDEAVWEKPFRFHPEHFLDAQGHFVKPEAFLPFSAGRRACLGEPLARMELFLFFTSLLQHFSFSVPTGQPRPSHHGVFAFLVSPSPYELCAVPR
Sequence of CB1 receptor (P21554 whole entry): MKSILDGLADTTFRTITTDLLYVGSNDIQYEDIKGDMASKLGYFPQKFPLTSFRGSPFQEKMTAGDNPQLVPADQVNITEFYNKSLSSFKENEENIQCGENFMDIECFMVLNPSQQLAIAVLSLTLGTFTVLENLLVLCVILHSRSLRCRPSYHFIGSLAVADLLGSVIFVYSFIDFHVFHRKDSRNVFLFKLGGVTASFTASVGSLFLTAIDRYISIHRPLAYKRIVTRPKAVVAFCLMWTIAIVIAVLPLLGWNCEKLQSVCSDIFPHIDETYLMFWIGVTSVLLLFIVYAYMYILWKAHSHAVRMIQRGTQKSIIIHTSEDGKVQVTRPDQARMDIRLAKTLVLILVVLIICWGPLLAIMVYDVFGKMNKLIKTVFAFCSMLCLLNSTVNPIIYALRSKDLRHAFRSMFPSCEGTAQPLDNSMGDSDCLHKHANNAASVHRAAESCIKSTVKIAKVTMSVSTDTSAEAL
Sequence of CYP3A4 (P08684 with tags, fused parts or gaps S18F limits assumed): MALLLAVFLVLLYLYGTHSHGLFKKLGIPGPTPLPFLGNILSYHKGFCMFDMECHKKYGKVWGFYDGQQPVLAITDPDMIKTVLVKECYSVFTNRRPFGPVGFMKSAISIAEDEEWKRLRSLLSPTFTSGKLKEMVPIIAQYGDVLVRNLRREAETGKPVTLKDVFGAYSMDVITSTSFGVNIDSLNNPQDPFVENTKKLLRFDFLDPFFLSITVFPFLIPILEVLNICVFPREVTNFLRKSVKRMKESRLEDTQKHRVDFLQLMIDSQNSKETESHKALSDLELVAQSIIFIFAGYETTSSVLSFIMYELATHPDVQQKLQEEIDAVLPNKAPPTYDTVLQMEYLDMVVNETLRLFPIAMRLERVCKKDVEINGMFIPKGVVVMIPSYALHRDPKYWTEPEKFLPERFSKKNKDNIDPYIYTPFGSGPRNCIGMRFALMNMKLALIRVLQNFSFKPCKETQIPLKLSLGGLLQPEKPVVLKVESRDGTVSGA

For the molecule `CCCCCC1=CC(=O)C2=C(OC(C)(C)c3ccc(C)cc32)C1=O` [CBN-quinone, 6,6,9-Trimethyl-3-pentyl-1H-benzo[c]chromene-1,4(6H)-dione], in data set [1] (IV administration of CBN), the “reduction of plasma level between 0.5 and 2 h” value (shortened to “reduction”) was 9 fold. In addition, in the data set with human liver microsomes, the “rate of metabolite formation from CBN” value is on record as “further down by approximately three times the value of CBN-1′–OH”. The “Vmax of metabolite formation from CBN” value on CYP2D6 is recorded as 5.6 pmol/min/nmol. Moreover, the “inhibition of CB2 receptor” value at CB2 receptor is on record as “partial inhibition”.
As to `CCCCCc1cc(O)c2c(c1)OC(C)(C)c1ccc(CO)cc1-2` [CBN-11-OH, cannabinol-11-hydroxy], the “reduction” value in data set [1] (IP administration of CBN) was 2 fold. The “reduction” value in [1] (IV administration of CBN) stood at 3 fold. In data set [1] (IV), the “CBN-11-OH formation relative to CBN-1′-OH” value is approximately 89 times and the “CBN-11-OH formation relative to CBN-quinone” value was approximately 55 times. Further, in data set [1] (i.p.), the “CBN-11-OH formation relative to CBN-1′-OH” value is approximately 82 fold and the “CBN-11-OH formation relative to CBN-quinone” value is listed as approximately 90 fold. Moreover, the “rate of metabolite formation from CBN” value with human liver microsomes is given as ≤ 3.4 × 10^4 pmol/min/nmol. Also, in the data set with NO (LPS-stimulated BV2, 5 μM), the “production of NO” value was “slightly lower production of NO”. Also, in the data set on NO (LPS-stimulated BV2, 1, 2.5 and 5 μM), the “change in NO levels compared to cells with only LPS treatment” value was “no detectable significant (ns) change”. Besides, the IL-6 levels result in the data set on IL-6 is “reduction in IL-6 levels”. For the same molecule, the IL-10 levels entry in the data set with IL-10 is “concentration-dependent increase in IL-10 levels”. Moreover, the Arginase1 levels result with Arginase 1 is “mixed results”. Besides, in the data set with DRG neurons, the “Ca2+ response (%)” value is 31.6 ± 2.8%; the “DRG neuron activation (%)” value amounted to 5.4 ± 1.1%; the “Response Time” value stood at 22.8 ± 2.2 s; the “[Ca2+]i responses, peak values” was 31.6 ± 2.8%. Also, in the data set on DRG neurons, the “percentage of DRG neurons activated” value amounted to 5.4 ± 1.1% and the “time to peak response” value is 22.8 ± 2.2 s. For the same molecule, the “inhibition of CB1 activation” value at CB1 receptor is “complete ablation of the BRET signal”. Besides, the “inhibition of CB2 receptor” value at CB2 receptor was “complete inhibition”.
For the molecule `CC(C)C[C@H]1C(=O)N2CCC[C@H]2[C@]2(O)O[C@](NC(=O)[C@@H]3C=C4c5cccc6[nH]c(Br)c(c56)C[C@H]4N(C)C3)(C(C)C)C(=O)N12` [Bromocriptine, reference compound], the “rate of NADPH oxidation in the presence of the compound” value on CYP3A4 turned out to be 60.788±19.569 nmol/min/nmol.

B1: CYP2C9 (Homo sapiens) (protein)
chain: MDSLVVLVLCLSCLLLLSLWRQSSGRGKLPPGPTPLPVIGNILQIGIKDISKSLTNLSKVYGPVFTLYFGLKPIVVLHGYEAVKEALIDLGEEFSGRGIFPLAERANRGFGIVFSNGKKWKEIRRFSLMTLRNFGMGKRSIEDRVQEEARCLVEELRKTKASPCDPTFILGCAPCNVICSIIFHKRFDYKDQQFLNLMEKLNENIKILSSPWIQICNNFSPIIDYFPGTHNKLLKNVAFMKSYILEKVKEHQESMDMNNPQDFIDCFLMKMEKEKHNQPSEFTIESLENTAVDLFGAGTETTSTTLRYALLLLLKHPEVTAKVQEEIERVIGRNRSPCMQDRSHMPYTDAVVHEVQRYIDLLPTSLPHAVTCDIKFRNYLIPKGTTILISLTSVLHDNKEFPNPEMFDPHHFLDEGGNFKKSKYFMPFSAGKRICVGEALAGMELFLFLTSILQNFNLKSLVDPKNLDTTPVVNGFASVPPFYQLCFIPV
Take B1: the Michaelis-Menten constant (Km) in “not read [2]” is 2.5 µM; in “not read [3]”, 2.3 µM. Also, the kcat in “not read [2]” came out at 4.4 pmol/min/nmol; in the data set “not read [3]”, 12.1 pmol/min/nmol.
